Measurements taken from the supplement of paper PMC8671470.
± gives the standard deviation of the averaged measurements.

System: HL-60
Experiment: cell viability (% survival relative to DMSO control); higher = less cytotoxic
Conditions: 72 h
How it was run: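 A rescreen of the full library used HL-60 cells in RPMI 1640 with 10% FBS on 384-well plates, run in duplicate at five tenfold concentrations (1–10,000 nM). Each screen included DMSO or 100 nM of one of three metabolic inhibitors and ran 72 h at 37 °C, 5% CO2. CellTiter-Glo viability was scaled between DMSO and 10 μM proteasome-inhibitor wells. Any area under the curve comes from four-parameter log-logistic fits with drc and PharmacoGx.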

[1] = 0.001 µM, co-treatment: AZD3965 100 nM
[2] = 0.001 µM, co-treatment: DMSO vehicle
[3] = 0.001 µM, co-treatment: GSK2194069 100 nM
[4] = 0.001 µM, co-treatment: pictilisib 100 nM
[5] = 0.01 µM, co-treatment: AZD3965 100 nM
[6] = 0.01 µM, co-treatment: DMSO vehicle
[7] = 0.01 µM, co-treatment: GSK2194069 100 nM
[8] = 0.01 µM, co-treatment: pictilisib 100 nM
[9] = 0.1 µM, co-treatment: AZD3965 100 nM
[10] = 0.1 µM, co-treatment: DMSO vehicle
[11] = 0.1 µM, co-treatment: GSK2194069 100 nM
[12] = 0.1 µM, co-treatment: pictilisib 100 nM
[13] = 1 µM, co-treatment: AZD3965 100 nM
[14] = 1 µM, co-treatment: DMSO vehicle
[15] = 1 µM, co-treatment: GSK2194069 100 nM
[16] = 1 µM, co-treatment: pictilisib 100 nM
[17] = 10 µM, co-treatment: AZD3965 100 nM
[18] = 10 µM, co-treatment: DMSO vehicle
[19] = 10 µM, co-treatment: GSK2194069 100 nM
[20] = 10 µM, co-treatment: pictilisib 100 nM

Row | Compound | cell viability [1] [%] | cell viability [2] [%] | cell viability [3] [%] | cell viability [4] [%] | cell viability [5] [%] | cell viability [6] [%] | cell viability [7] [%] | cell viability [8] [%] | cell viability [9] [%] | cell viability [10] [%] | cell viability [11] [%] | cell viability [12] [%] | cell viability [13] [%] | cell viability [14] [%] | cell viability [15] [%] | cell viability [16] [%] | cell viability [17] [%] | cell viability [18] [%] | cell viability [19] [%] | cell viability [20] [%]
1 | [N-]=[N+]=CC(=O)CC[C@H](N)C(=O)O [6-Diazo-5-oxo-L-norleucine] | 97.4 ± 11 | 98.1 ± 2.5 | 96.8 ± 8.2 | 86.7 ± 24 | 97.3 ± 4.9 | 100.1 ± 0.89 | 101 ± 3.5 | 102 ± 4.2 | 111 ± 13 | 103 ± 1.3 | 105 ± 9.1 | 102 ± 3.5 | 100.44 ± 0.019 | 101 ± 2.2 | 103 ± 6.7 | 105 ± 7.1 | 100 ± 1.3 | 101 ± 2.1 | 101.3 ± 0.3 | 87.8 ± 10
2 | CCOC(=O)N1c2ccc(C(F)(F)F)cc2[C@@H](N(Cc2cc(C(F)(F)F)cc(C(F)(F)F)c2)C(=O)OC)C[C@H]1CC [Torcetrapib] | 101 ± 1.8 | 104.8 ± 1 | 101 ± 10 | 113 ± 16 | 98.6 ± 2.3 | 99.13 ± 0.66 | 104 ± 15 | 105 ± 22 | 97.5 ± 4 | 98.7 ± 8.2 | 88 ± 9.7 | 83.6 ± 18 | 97.7 ± 6.2 | 103 ± 6.9 | 94.9 ± 7.2 | 100 ± 4.2 | 98.8 ± 5.5 | 100 ± 1.6 | 95.4 ± 16 | 117 ± 21
3 | CC(C)C[C@H](NC(=O)[C@@H](O)[C@H](N)Cc1ccccc1)C(=O)O [Ubenimex] | 101 ± 4.3 | 104 ± 3.4 | 102 ± 3.6 | 99.1 ± 1.1 | 101 ± 11 | 103 ± 1.4 | 95.6 ± 11 | 93.2 ± 11 | 99.3 ± 9.9 | 102 ± 3.4 | 107 ± 2 | 104 ± 7.1 | 98.1 ± 2.2 | 97.6 ± 5.8 | 94 ± 4.7 | 79.3 ± 1.4 | 106 ± 2 | 95.3 ± 1.6 | 103 ± 5.7 | 98.8 ± 3.3
4 | CC(Cc1ccc(O)c(O)c1)C(C)Cc1ccc(O)c(O)c1 (stereo not given) [Masoprocol] | 103 ± 4.1 | 101.9 ± 0.67 | 102 ± 9.7 | 102 ± 5.4 | 100 ± 7.9 | 98.1 ± 2.7 | 100.9 ± 0.44 | 89.6 ± 7.2 | 98.5 ± 1.4 | 96.29 ± 0.34 | 98.6 ± 2.7 | 94 ± 5.3 | 92.8 ± 4.1 | 99.3 ± 1.9 | 96.6 ± 4.1 | 86.4 ± 1.2 | 10.8 ± 0.34 | 12.9 ± 3.7 | 21.8 ± 0.43 | 4.58 ± 1
5 | O=C1Nc2ccccc2/C1=C\NCCc1ccc(O)c(O)c1 [AC1NZZMF] | 95.6 ± 7.7 | 103 ± 1.8 | 99.4 ± 2.7 | 102 ± 6.3 | 90.2 ± 23 | 100.1 ± 0.38 | 98.5 ± 11 | 110 ± 4.9 | 102 ± 4 | 102 ± 1.2 | 100 ± 1.1 | 97.2 ± 13 | 105 ± 8.5 | 102.2 ± 0.11 | 99 ± 0.43 | 103 ± 13 | 87.9 ± 9.7 | 100.97 ± 0.1 | 95.4 ± 1.8 | 74.1 ± 3.9
6 | O=C(O)c1nn(Cc2ccc(Cl)cc2Cl)c2ccccc12 [Lonidamine] | 96.3 ± 3.7 | 97.83 ± 0.75 | 96.6 ± 2.2 | 101 ± 1.6 | 90.8 ± 2 | 105 ± 1.4 | 97.05 ± 0.16 | 99.3 ± 12 | 100 ± 3.7 | 100.5 ± 0.34 | 98.9 ± 2.4 | 98.22 ± 0.36 | 101 ± 1.1 | 101 ± 1.2 | 101 ± 7.9 | 103 ± 7.6 | 95.4 ± 9.7 | 98.4 ± 5.4 | 99.8 ± 5.7 | 94.8 ± 8.1
7 | CCOC(=O)[C@@]1(CCCCCCOc2ccc(Cl)cc2)CO1 [Etomoxir] | 102.9 ± 0.64 | 103 ± 1.2 | 106 ± 3.9 | 100 ± 5.9 | 84.3 ± 34 | 99.54 ± 0.17 | 92 ± 16 | 80.2 ± 27 | 106 ± 3.8 | 102 ± 3.4 | 103.8 ± 0.98 | 113 ± 5 | 87.5 ± 11 | 86.5 ± 21 | 77.9 ± 16 | 102 ± 3.8 | 109 ± 1.6 | 106 ± 1.7 | 100 ± 6.6 | 98 ± 6.5
8 | N[C@](CCCCB(O)O)(CCN1CCCCC1)C(=O)O [Arginase inhibitor 1] | 94.6 ± 14 | 102.5 ± 0.45 | 91.7 ± 12 | 87.5 ± 14 | 98.6 ± 5.9 | 97.3 ± 2 | 100 ± 5.7 | 94.4 ± 4.9 | 99.9 ± 2.7 | 102 ± 3.7 | 109.7 ± 0.86 | 98.3 ± 3 | 99.151 ± 0.014 | 98.12 ± 0.95 | 90.6 ± 12 | 90.8 ± 6.9 | 102.3 ± 0.42 | 103 ± 7.5 | 101 ± 6.6 | 99.5 ± 2.6
9 | O=C(COc1ccc(C(=O)c2ccccc2)cc1)NC1CCN(Cc2ccccc2)CC1 [AdipoRon] | 101 ± 1.2 | 99.7 ± 4.2 | 105 ± 6.7 | 97.7 ± 7.3 | 99.9 ± 9.8 | 100.3 ± 0.47 | 103 ± 5.5 | 104 ± 8 | 106 ± 2 | 104 ± 5.3 | 101 ± 3.1 | 97.7 ± 3.8 | 98.45 ± 0.62 | 80.8 ± 30 | 92.1 ± 7.6 | 92.4 ± 10 | 105 ± 3.6 | 105 ± 5.4 | 93.3 ± 6.3 | 91.2 ± 1.6
10 | Cl.OC[C@H]1NC[C@@H](O)[C@@H](O)[C@@H]1O [1-Deoxymannojirimycin hydrochloride] | 100 ± 3.4 | 99 ± 15 | 94.8 ± 6.3 | 95 ± 18 | 99.9 ± 6.2 | 107 ± 2.2 | 90.2 ± 12 | 99.8 ± 5 | 101 ± 1.6 | 100 ± 1.1 | 93.66 ± 0.51 | 102 ± 2.5 | 101.8 ± 0.31 | 106 ± 1.2 | 101 ± 9 | 111.2 ± 1 | 101 ± 5.8 | 95.9 ± 2.1 | 86.6 ± 3 | 104 ± 6.5
11 | C[C@H]1O[C@@H](O[C@H]2[C@@H](O)C[C@H](O[C@H]3[C@@H](O)C[C@H](O[C@H]4CC[C@@]5(C)[C@H](CC[C@@H]6[C@@H]5C[C@@H](O)[C@]5(C)[C@@H](C7=CC(=O)OC7)CC[C@]65O)C4)O[C@@H]3C)O[C@@H]2C)C[C@H](O)[C@@H]1O [Digoxin] | 75.4 ± 20 | 96.3 ± 4.9 | 84.4 ± 2.7 | 90.5 ± 2.1 | 100.2 ± 0.99 | 102.5 ± 0.88 | 79.1 ± 12 | 89.6 ± 7.5 | 59.9 ± 4.1 | 59.4 ± 21 | 67.8 ± 22 | 51.4 ± 16 | -2.24 ± 0.7 | 0.303 ± 2.7 | -2.57 ± 0.89 | -2.59 ± 1.1 | -0.643 ± 0.45 | -1.62 ± 0.34 | -1.79 ± 0.52 | -1.33 ± 0.87
